Source: patent publication US9738634B2, “Heterocyclic amide compound and herbicide” (SYNGENTA PARTICIPATIONS AG, priority 2013, dated 2017)

Assays:
Assay type in all cases: in vivo
catchweed [1] = test: Test Example 4: weedkilling efficacy by foliar treatment; O: catchweed; settings: treatment dosage 315 g/ha
Procedure, shortened: (§1)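 Seeds are spot-sown into sterilized diluvial soil and covered with about 1.5 cm of soil. After 14 days' greenhouse growth at 25 to 30° C, plants are sprayed on stems and leaves with diluted emulsion at the stated g/ha rate, then scored at 3 weeks.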

crabgrass [2] = test: Test Example 4: weedkilling efficacy by foliar treatment; D: crabgrass; settings: treatment dosage 315 g/ha
Procedure, shortened: as §1

transplanted rice = test: Test Example 1: preemergent weed treatment in the submerged state, effect on crop; a: transplanted rice; settings: treatment dosage 252 g/ha
Procedure, shortened: (§2)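 Submerged pre-emergence treatment, water-surface application of compound emulsion at g/ha dosages; 4 cm flooded alluvial soil, weeds sown and 2.5-leaf rice transplanted same day. Rated after 3 weeks, greenhouse.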

chickweed [3] = test: Test Example 3: weedkilling efficacy through soil treatment; N: chickweed; settings: treatment dosage 315 g/ha
Procedure, shortened: (§3)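 Crop and weed responses were judged three weeks after a uniform surface spray of the water-diluted emulsion at the given g/ha rate. Seeds sat beneath about 1.5 cm of sterilized diluvial soil, and boxes stood in a greenhouse at 25 to 30° C.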

oval-leafed pondweed [4] = test: Test Example 1: weedkilling efficacy, preemergent weed treatment in the submerged state; C: oval-leafed pondweed; settings: treatment dosage 252 g/ha
Procedure, shortened: as §2

chickweed [5] = test: Test Example 4: weedkilling efficacy by foliar treatment; N: chickweed; settings: treatment dosage 315 g/ha
Procedure, shortened: as §1

Italian ryegrass [6] = test: Test Example 4: weedkilling efficacy by foliar treatment; I: Italian ryegrass; settings: treatment dosage 315 g/ha
Procedure, shortened: as §1

directly sown rice [7] = test: Test Example 4: foliar treatment, effect on crop; b: directly sown rice; settings: treatment dosage 315 g/ha
Procedure, shortened: as §1

wheat [8] = test: Test Example 4: foliar treatment, effect on crop; e: wheat; settings: treatment dosage 315 g/ha
Procedure, shortened: as §1

wheat [9] = test: Test Example 3: soil treatment, effect on crop; e: wheat; settings: treatment dosage 315 g/ha
Procedure, shortened: as §3

oval-leafed pondweed [10] = test: Test Example 2: weedkilling efficacy, growth period weed treatment in the submerged state; C: oval-leafed pondweed; settings: treatment dosage 252 g/ha
Procedure, shortened: (§4)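 Seedlings at 1-2 leaves in 4 cm-deep submerged alluvial soil received emulsion formulations on the water surface, dosed per hectare; effects were judged 3 weeks on.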

redroot pigweed [11] = test: Test Example 4: weedkilling efficacy by foliar treatment; L: redroot pigweed; settings: treatment dosage 315 g/ha
Procedure, shortened: as §1

fig-leafed goosefoot [12] = test: Test Example 4: weedkilling efficacy by foliar treatment; M: fig-leafed goosefoot; settings: treatment dosage 315 g/ha
Procedure, shortened: as §1

wild oat [13] = test: Test Example 4: weedkilling efficacy by foliar treatment; G: wild oat; settings: treatment dosage 315 g/ha
Method: Testing of Weedkilling Efficacy by Foliar Treatment
Sterilized diluvial soil was introduced into 21 cm long, 13 cm wide, 7 cm deep plastic boxes, and seeds of crabgrass, green foxtail, barnyard grass, wild oat, black-grass, Italian ryegrass, common wind-grass, Indian mallow, redroot pigweed, fig-leafed goosefoot, chickweed, catchweed, birds-eye speedwell, corn, soybean, rice, wheat, beet and rapeseed were each spot-sown, and covered with about 1.5 cm of soil, then the plants were grown in a greenhouse at 25 to 30° C.
After they had grown for 14 days, emulsions of compounds of the present invention prepared according to compounding example 2 were diluted with water to give the specified dosages, and applied uniformly onto the stem and leaf parts with a small sprayer. 3 weeks after the pesticide treatment the effect on each type of plant was investigated on the basis of the assessment criteria of test example 1.
A: barnyard grass, B: bulrush, C: oval-leafed pondweed, D: crabgrass, E: green foxtail, F: barnyard grass, G: wild oat, H: black-grass, I: Italian ryegrass, J: common wind-grass, K: Indian mallow, L: redroot pigweed, M: fig-leafed goosefoot, N: chickweed, O: catchweed, p: birds-eye speedwell, a: transplanted rice, b: directly sown rice, c: corn, d: soybean, e: wheat, f: beet, g: rapeseed
Further, pesticide dosage (g/ha) indicates the concentration regulated such that treatment was with only the stated number of grams (g), when calculated per hectare (ha).

barnyard grass [14] = test: Test Example 1: weedkilling efficacy, preemergent weed treatment in the submerged state; A: barnyard grass; settings: treatment dosage 252 g/ha
Procedure, shortened: as §2

black-grass [15] = test: Test Example 3: weedkilling efficacy through soil treatment; H: black-grass; settings: treatment dosage 315 g/ha
Procedure, shortened: as §3

Indian mallow [16] = test: Test Example 3: weedkilling efficacy through soil treatment; K: Indian mallow; settings: treatment dosage 315 g/ha
Procedure, shortened: as §3

catchweed [17] = test: Test Example 3: weedkilling efficacy through soil treatment; O: catchweed; settings: treatment dosage 315 g/ha
Procedure, shortened: as §3

corn [18] = test: Test Example 3: soil treatment, effect on crop; c: corn; settings: treatment dosage 315 g/ha
Procedure, shortened: as §3

soybean [19] = test: Test Example 4: foliar treatment, effect on crop; d: soybean; settings: treatment dosage 315 g/ha
Procedure, shortened: as §1

barnyard grass [20] = test: Test Example 2: weedkilling efficacy, growth period weed treatment in the submerged state; A: barnyard grass; settings: treatment dosage 252 g/ha
Procedure, shortened: as §4

bulrush [21] = test: Test Example 1: weedkilling efficacy, preemergent weed treatment in the submerged state; B: bulrush; settings: treatment dosage 252 g/ha
Procedure, shortened: as §2

birds-eye speedwell = test: Test Example 3: weedkilling efficacy through soil treatment; p: birds-eye speedwell; settings: treatment dosage 315 g/ha
Procedure, shortened: as §3

directly sown rice [22] = test: Test Example 3: soil treatment, effect on crop; b: directly sown rice; settings: treatment dosage 315 g/ha
Procedure, shortened: as §3

beet [23] = test: Test Example 3: soil treatment, effect on crop; f: beet; settings: treatment dosage 315 g/ha
Procedure, shortened: as §3

soybean [24] = test: Test Example 3: soil treatment, effect on crop; d: soybean; settings: treatment dosage 315 g/ha
Procedure, shortened: as §3

green foxtail [25] = test: Test Example 4: weedkilling efficacy by foliar treatment; E: green foxtail; settings: treatment dosage 315 g/ha
Procedure, shortened: as §1

fig-leafed goosefoot [26] = test: Test Example 3: weedkilling efficacy through soil treatment; M: fig-leafed goosefoot; settings: treatment dosage 315 g/ha
Procedure, shortened: as §3

bulrush [27] = test: Test Example 2: weedkilling efficacy, growth period weed treatment in the submerged state; B: bulrush; settings: treatment dosage 252 g/ha
Procedure, shortened: as §4

corn [28] = test: Test Example 4: foliar treatment, effect on crop; c: corn; settings: treatment dosage 315 g/ha
Procedure, shortened: as §1

Italian ryegrass [29] = test: Test Example 3: weedkilling efficacy through soil treatment; I: Italian ryegrass; settings: treatment dosage 315 g/ha
Procedure, shortened: as §3

Indian mallow [30] = test: Test Example 4: weedkilling efficacy by foliar treatment; K: Indian mallow; settings: treatment dosage 315 g/ha
Procedure, shortened: as §1

black-grass [31] = test: Test Example 4: weedkilling efficacy by foliar treatment; H: black-grass; settings: treatment dosage 315 g/ha
Procedure, shortened: as §1

wild oat [32] = test: Test Example 3: weedkilling efficacy through soil treatment; G: wild oat; settings: treatment dosage 315 g/ha
Procedure, shortened: as §3

beet [33] = test: Test Example 4: foliar treatment, effect on crop; f: beet; settings: treatment dosage 315 g/ha
Procedure, shortened: as §1

green foxtail [34] = test: Test Example 3: weedkilling efficacy through soil treatment; E: green foxtail; settings: treatment dosage 315 g/ha
Procedure, shortened: as §3

redroot pigweed [35] = test: Test Example 3: weedkilling efficacy through soil treatment; L: redroot pigweed; settings: treatment dosage 315 g/ha
Procedure, shortened: as §3

crabgrass [36] = test: Test Example 3: weedkilling efficacy through soil treatment; D: crabgrass; settings: treatment dosage 315 g/ha
Procedure, shortened: as §3

With CC1=C(c2ccccc2)C(=O)N(C(C)(C)C(=O)Nc2cc(Cl)cc(Br)n2)CO1 [B-2-36] as the compound, how does the “O (catchweed) weedkilling efficacy grade” value (catchweed [1]) read?
Its value is 4 (weed kill ratio 70% or more, less than 90%).

And the “D (crabgrass) weedkilling efficacy grade” value (crabgrass [2])?
The value was 5 (weed kill ratio 90% or more, (practically complete withering)).

What about the “a (transplanted rice) effect on crop grade” value (transplanted rice) of the same compound?
Its value is 0 (weed kill ratio 5% or less (practically no effect)).

And the “N (chickweed) weedkilling efficacy grade” value (chickweed [3])?
The value was 4 (weed kill ratio 70% or more, less than 90%).

And the “C (oval-leafed pondweed) weedkilling efficacy grade” value (oval-leafed pondweed [4])?
Its value is 5 (weed kill ratio 90% or more, (practically complete withering)).

What about the “N (chickweed) weedkilling efficacy grade” value (chickweed [5]) of the same compound?
The value was 4 (weed kill ratio 70% or more, less than 90%).

And the “I (Italian ryegrass) weedkilling efficacy grade” value (Italian ryegrass [6])?
The value was 0 (weed kill ratio 5% or less (practically no effect)).

And the “b (directly sown rice) effect on crop grade” value (directly sown rice [7])?
The value was 4 (weed kill ratio 70% or more, less than 90%).

And the “e (wheat) effect on crop grade” value (wheat [8])?
Its value is 0 (weed kill ratio 5% or less (practically no effect)).

What about the “e (wheat) effect on crop grade” value (wheat [9]) of the same compound?
The value was 0 (weed kill ratio 5% or less (practically no effect)).

And the “C (oval-leafed pondweed) weedkilling efficacy grade” value (oval-leafed pondweed [10])?
The value was 5 (weed kill ratio 90% or more, (practically complete withering)).

What about the “L (redroot pigweed) weedkilling efficacy grade” value (redroot pigweed [11]) of the same compound?
The value was 3 (weed kill ratio 40% or more, less than 70%).

And the “M (fig-leafed goosefoot) weedkilling efficacy grade” value (fig-leafed goosefoot [12])?
Its value is 4 (weed kill ratio 70% or more, less than 90%).

What about the “G (wild oat) weedkilling efficacy grade” value (wild oat [13]) of the same compound?
The value was 1 (weed kill ratio 5% or more, less than 20%).

And the “A (barnyard grass) weedkilling efficacy grade” value (barnyard grass [14])?
Its value is 5 (weed kill ratio 90% or more, (practically complete withering)).

And the “H (black-grass) weedkilling efficacy grade” value (black-grass [15])?
The value was 5 (weed kill ratio 90% or more, (practically complete withering)).

What about the “K (Indian mallow) weedkilling efficacy grade” value (Indian mallow [16]) of the same compound?
Its value is 4 (weed kill ratio 70% or more, less than 90%).

What about the “O (catchweed) weedkilling efficacy grade” value (catchweed [17]) of the same compound?
Its value is 5 (weed kill ratio 90% or more, (practically complete withering)).

And the “c (corn) effect on crop grade” value (corn [18])?
Its value is 1 (weed kill ratio 5% or more, less than 20%).

What about the “d (soybean) effect on crop grade” value (soybean [19]) of the same compound?
Its value is 3 (weed kill ratio 40% or more, less than 70%).

And the “A (barnyard grass) weedkilling efficacy grade” value (barnyard grass [20])?
Its value is 5 (weed kill ratio 90% or more, (practically complete withering)).

And the “B (bulrush) weedkilling efficacy grade” value (bulrush [21])?
Its value is 5 (weed kill ratio 90% or more, (practically complete withering)).

What about the “P (birds-eye speedwell) weedkilling efficacy grade” value (birds-eye speedwell) of the same compound?
The value was 4 (weed kill ratio 70% or more, less than 90%).

What about the “b (directly sown rice) effect on crop grade” value (directly sown rice [22]) of the same compound?
The value was 4 (weed kill ratio 70% or more, less than 90%).

And the “f (beet) effect on crop grade” value (beet [23])?
The value was 3 (weed kill ratio 40% or more, less than 70%).

And the “d (soybean) effect on crop grade” value (soybean [24])?
Its value is 1 (weed kill ratio 5% or more, less than 20%).

And the “E (green foxtail) weedkilling efficacy grade” value (green foxtail [25])?
The value was 5 (weed kill ratio 90% or more, (practically complete withering)).

What about the “M (fig-leafed goosefoot) weedkilling efficacy grade” value (fig-leafed goosefoot [26]) of the same compound?
The value was 3 (weed kill ratio 40% or more, less than 70%).

What about the “B (bulrush) weedkilling efficacy grade” value (bulrush [27]) of the same compound?
Its value is 5 (weed kill ratio 90% or more, (practically complete withering)).

And the “c (corn) effect on crop grade” value (corn [28])?
The value was 3 (weed kill ratio 40% or more, less than 70%).

And the “I (Italian ryegrass) weedkilling efficacy grade” value (Italian ryegrass [29])?
Its value is 4 (weed kill ratio 70% or more, less than 90%).

What about the “K (Indian mallow) weedkilling efficacy grade” value (Indian mallow [30]) of the same compound?
Its value is 4 (weed kill ratio 70% or more, less than 90%).

And the “H (black-grass) weedkilling efficacy grade” value (black-grass [31])?
Its value is 3 (weed kill ratio 40% or more, less than 70%).

And the “G (wild oat) weedkilling efficacy grade” value (wild oat [32])?
Its value is 1 (weed kill ratio 5% or more, less than 20%).

What about the “f (beet) effect on crop grade” value (beet [33]) of the same compound?
The value was 3 (weed kill ratio 40% or more, less than 70%).

And the “E (green foxtail) weedkilling efficacy grade” value (green foxtail [34])?
The value was 5 (weed kill ratio 90% or more, (practically complete withering)).

And the “L (redroot pigweed) weedkilling efficacy grade” value (redroot pigweed [35])?
Its value is 4 (weed kill ratio 70% or more, less than 90%).

And the “D (crabgrass) weedkilling efficacy grade” value (crabgrass [36])?
Its value is 5 (weed kill ratio 90% or more, (practically complete withering)).
